In ChEMBL document CHEMBL3227944, “Beta-adrenoceptor studies. 5. 1H NMR and IR spectroscopic analysis of the conformation of the hydrohalide salts of beta-adrenoceptor-blocking aryloxypropanolamines. Evidence for a seven-membered ring structure with participation of two hydrogen bonds” (J Med Chem, 1979):
Activity calls are given as the source filed them. The calls are words filed in the database; no cut-off is given here.

What was measured:
Cavia porcellus [1] = species: Cavia porcellus; test: Competitive antagonist activity at guinea pig atrium beta-adrenoceptor assessed as inhibition of isoprenaline-induced effect up to 3 X 10^-5 M; assay type: tissue-based; conditions: Cardiac atrium
Cavia porcellus [2] = species: Cavia porcellus; test: Competitive antagonist activity at guinea pig trachea beta-adrenoceptor assessed as inhibition of isoprenaline-induced effect up to 10^-4 M; assay type: tissue-based
[3] = Antagonist activity at guinea pig atrium beta-adrenoceptor assessed as inhibition of isoprenaline-induced effect; assay type: tissue-based, Cavia porcellus, Cardiac atrium
[4] = Antagonist activity at guinea pig trachea beta-adrenoceptor assessed as inhibition of isoprenaline-induced effect; assay type: tissue-based, Cavia porcellus

In the case of Cc1cccc(OCC(Cl)CNC(C)C)c1 (configuration not stated), the Activity (Cavia porcellus [1]) is reported as “inactive” and the Activity (Cavia porcellus [2]) is reported as “inactive”.
With COC(CNC(C)C)COc1cccc(C)c1.Cl (configuration not stated) the Activity (Cavia porcellus [2]) was “inactive” and the pA2 [3] was 5.41.
In the case of Cc1cccc(OCC(CCl)NC(C)C)c1.Cl (configuration not stated), the Activity (Cavia porcellus [2]) is reported as “inactive” and the pA2 [3] is reported as 4.86.
Cc1cccc(OCC(CO)NC(C)C)c1.Cl (configuration not stated) showed a pA2 [4] of 5.21 and a pA2 [3] of 5.08.
For Cc1cccc(OCC(O)CNC(C)C)c1.Cl (configuration not stated), the pA2 [4] was 7.97 and the pA2 [3] was 8.76.
In the case of COCC(COc1cccc(C)c1)NC(C)C.Cl (configuration not stated), the Activity (Cavia porcellus [2]) is reported as “inactive” and the pA2 [3] is reported as 4.66.
